Columns and labels:
[1] = target: T1, ALK tyrosine kinase receptor (Homo sapiens, UniProt Q9UM73); assay: Inhibition of ALK
Target sequence in this assay (Q9UM73 whole entry): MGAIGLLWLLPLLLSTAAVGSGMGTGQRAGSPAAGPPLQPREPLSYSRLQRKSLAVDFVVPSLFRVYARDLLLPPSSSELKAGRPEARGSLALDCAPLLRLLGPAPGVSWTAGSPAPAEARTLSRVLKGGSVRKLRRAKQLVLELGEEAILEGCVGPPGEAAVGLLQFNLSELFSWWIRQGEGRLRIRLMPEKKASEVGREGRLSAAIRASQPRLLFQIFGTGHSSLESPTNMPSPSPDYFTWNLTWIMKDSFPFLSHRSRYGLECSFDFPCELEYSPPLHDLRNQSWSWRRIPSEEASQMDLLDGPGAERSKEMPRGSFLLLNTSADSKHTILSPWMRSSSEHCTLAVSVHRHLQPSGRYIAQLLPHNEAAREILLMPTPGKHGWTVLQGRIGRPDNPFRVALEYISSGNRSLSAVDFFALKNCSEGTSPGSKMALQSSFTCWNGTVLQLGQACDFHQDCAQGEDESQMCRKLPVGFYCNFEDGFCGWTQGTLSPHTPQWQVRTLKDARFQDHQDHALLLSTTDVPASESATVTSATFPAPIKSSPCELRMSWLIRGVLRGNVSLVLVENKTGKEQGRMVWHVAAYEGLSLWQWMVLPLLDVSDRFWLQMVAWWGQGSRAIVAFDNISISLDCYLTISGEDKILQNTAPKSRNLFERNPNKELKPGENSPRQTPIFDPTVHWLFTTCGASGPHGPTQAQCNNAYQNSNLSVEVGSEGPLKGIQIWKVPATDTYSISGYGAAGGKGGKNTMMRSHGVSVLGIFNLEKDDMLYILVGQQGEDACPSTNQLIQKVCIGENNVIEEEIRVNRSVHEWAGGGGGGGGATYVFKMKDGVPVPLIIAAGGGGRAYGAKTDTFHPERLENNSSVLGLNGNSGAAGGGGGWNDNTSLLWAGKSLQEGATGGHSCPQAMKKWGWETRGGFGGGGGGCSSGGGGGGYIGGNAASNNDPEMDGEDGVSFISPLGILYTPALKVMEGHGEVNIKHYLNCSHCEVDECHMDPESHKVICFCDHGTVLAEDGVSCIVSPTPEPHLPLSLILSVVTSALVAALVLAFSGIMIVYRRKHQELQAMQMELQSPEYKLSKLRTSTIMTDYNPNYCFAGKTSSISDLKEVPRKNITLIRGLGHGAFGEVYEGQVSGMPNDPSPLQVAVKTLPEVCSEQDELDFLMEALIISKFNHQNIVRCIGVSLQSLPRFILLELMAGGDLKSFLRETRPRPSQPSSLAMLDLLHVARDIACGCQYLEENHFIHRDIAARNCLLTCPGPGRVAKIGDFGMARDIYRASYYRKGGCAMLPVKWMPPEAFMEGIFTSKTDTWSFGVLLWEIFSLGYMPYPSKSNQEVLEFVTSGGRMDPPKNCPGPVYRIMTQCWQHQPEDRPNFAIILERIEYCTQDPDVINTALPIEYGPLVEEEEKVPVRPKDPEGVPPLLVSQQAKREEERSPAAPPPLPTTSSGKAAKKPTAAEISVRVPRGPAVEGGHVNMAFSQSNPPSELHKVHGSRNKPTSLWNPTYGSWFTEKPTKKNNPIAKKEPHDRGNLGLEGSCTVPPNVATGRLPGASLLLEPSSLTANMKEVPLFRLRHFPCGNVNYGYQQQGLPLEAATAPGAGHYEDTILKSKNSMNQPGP

[2] = target: T1, ALK tyrosine kinase receptor; assay: Inhibition of autophosphorylation of NPM-ALK in human Karpas-299 cells; format: cell-based
Target sequence in this assay (Q9UM73 19-1620 limits assumed): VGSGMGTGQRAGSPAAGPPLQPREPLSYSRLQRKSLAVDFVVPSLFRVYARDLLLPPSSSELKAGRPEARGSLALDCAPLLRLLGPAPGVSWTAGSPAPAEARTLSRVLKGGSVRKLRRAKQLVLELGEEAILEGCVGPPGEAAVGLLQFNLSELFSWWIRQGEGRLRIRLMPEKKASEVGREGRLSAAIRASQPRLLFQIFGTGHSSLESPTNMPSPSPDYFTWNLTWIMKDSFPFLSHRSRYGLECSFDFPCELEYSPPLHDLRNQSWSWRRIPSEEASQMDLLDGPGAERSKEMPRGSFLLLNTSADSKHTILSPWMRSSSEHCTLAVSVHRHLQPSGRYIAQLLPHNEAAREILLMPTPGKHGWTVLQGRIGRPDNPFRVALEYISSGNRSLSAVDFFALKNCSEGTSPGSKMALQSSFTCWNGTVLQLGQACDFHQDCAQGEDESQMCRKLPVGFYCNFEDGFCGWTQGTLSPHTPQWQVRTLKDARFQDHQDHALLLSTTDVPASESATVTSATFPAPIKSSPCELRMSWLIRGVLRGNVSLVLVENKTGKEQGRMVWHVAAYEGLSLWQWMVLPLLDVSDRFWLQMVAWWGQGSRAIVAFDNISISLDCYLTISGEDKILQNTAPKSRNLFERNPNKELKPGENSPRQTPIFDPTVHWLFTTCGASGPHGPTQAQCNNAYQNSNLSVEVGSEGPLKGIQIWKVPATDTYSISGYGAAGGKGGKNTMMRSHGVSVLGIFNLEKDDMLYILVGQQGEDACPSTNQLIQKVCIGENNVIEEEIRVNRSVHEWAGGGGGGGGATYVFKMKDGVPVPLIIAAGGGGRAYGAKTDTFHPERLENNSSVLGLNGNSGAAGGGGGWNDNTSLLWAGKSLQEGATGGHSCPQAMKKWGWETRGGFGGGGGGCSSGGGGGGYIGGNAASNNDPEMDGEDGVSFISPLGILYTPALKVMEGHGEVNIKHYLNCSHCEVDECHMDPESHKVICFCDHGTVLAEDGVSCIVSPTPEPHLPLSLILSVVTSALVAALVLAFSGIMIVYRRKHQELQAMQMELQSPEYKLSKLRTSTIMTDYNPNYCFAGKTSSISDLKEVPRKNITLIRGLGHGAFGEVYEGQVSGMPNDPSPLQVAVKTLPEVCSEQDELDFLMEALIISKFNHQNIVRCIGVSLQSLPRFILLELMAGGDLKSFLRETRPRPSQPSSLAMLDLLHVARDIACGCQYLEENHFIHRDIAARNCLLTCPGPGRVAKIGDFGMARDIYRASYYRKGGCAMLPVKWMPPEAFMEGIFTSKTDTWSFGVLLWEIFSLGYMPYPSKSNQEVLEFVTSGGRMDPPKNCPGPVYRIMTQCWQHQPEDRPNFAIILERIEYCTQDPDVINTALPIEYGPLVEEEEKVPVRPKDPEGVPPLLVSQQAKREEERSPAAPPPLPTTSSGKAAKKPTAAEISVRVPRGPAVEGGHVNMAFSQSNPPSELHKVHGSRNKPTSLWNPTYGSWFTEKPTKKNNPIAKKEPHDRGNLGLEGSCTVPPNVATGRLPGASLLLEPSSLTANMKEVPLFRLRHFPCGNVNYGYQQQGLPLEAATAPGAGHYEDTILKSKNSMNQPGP

[3] = target: Insulin receptor (Homo sapiens, UniProt P06213); assay: Inhibition of IR
Sequence of Insulin receptor (P06213 28-758 limits assumed): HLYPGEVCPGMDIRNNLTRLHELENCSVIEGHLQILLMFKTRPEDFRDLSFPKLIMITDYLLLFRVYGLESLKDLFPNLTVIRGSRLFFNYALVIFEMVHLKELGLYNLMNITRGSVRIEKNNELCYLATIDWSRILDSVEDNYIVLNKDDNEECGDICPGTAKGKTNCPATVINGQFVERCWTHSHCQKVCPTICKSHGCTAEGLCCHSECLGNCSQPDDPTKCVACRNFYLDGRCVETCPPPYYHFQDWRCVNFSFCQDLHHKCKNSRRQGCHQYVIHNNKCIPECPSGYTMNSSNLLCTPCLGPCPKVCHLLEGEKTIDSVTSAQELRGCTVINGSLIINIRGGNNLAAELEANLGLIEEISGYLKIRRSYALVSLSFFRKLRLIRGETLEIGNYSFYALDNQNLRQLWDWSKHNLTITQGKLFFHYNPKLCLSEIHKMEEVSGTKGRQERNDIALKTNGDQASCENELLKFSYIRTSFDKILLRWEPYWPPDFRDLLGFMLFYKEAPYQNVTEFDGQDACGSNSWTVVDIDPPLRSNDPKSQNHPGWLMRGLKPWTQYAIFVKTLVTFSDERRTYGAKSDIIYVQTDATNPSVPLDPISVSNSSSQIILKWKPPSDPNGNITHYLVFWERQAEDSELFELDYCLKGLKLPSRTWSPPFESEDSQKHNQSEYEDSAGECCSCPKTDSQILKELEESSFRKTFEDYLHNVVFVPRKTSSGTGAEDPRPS
Sequence of Insulin receptor (P06213 763-1382 limits assumed): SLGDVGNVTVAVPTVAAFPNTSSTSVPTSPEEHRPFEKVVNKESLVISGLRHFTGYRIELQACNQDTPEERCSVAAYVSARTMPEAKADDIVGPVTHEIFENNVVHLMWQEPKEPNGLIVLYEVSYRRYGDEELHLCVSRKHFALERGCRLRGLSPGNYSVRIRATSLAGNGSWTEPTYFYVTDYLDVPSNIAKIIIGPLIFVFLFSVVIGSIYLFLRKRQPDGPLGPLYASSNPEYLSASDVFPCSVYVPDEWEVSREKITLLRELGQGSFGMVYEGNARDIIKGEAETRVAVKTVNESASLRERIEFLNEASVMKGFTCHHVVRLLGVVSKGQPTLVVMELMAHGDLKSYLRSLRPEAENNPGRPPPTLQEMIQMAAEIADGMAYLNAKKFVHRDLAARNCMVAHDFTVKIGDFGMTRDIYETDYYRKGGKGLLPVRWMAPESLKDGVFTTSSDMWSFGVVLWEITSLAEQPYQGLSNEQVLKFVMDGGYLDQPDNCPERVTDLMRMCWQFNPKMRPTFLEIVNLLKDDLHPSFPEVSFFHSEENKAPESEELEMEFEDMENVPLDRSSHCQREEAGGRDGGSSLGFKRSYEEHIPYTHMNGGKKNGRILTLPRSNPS

Row | SMILES | IC50 [1] [nM] | IC50 [2] [nM] | IC50 [3] [nM]
1 | CCN([C@@H]1CCCC[C@H]1Nc1nc(Nc2cc3c(cc2OC)CCN(CCOC)CC3)ncc1Cl)S(C)(=O)=O | 20 | 150 | 430
2 | COCCN1CCc2ccc(Nc3ncc(Cl)c(N[C@@H]4CCCC[C@H]4NC(=O)C(F)(F)F)n3)cc2CC1 | 22 | 100 | 710
3 | COCCN1CCc2ccc(Nc3ncc(Cl)c(N[C@@H]4CCC[C@H](NS(C)(=O)=O)C4)n3)cc2CC1 (racemic) | > 3000 | – | –
4 | COCCN1CCc2ccc(Nc3ncc(Cl)c(N[C@@H]4CCCC[C@H]4NS(=O)(=O)C(C)C)n3)cc2CC1 | 130 | – | –
5 | COCCN1CCc2ccc(Nc3ncc(Cl)c(N[C@@H]4CCCC[C@H]4O)n3)cc2CC1 (racemic) | > 3000 | – | –
6 | COCCN1CCc2ccc(Nc3ncc(Cl)c(N[C@@H]4CCCC[C@H]4NS(=O)(=O)CC(F)(F)F)n3)cc2CC1 | 31 | 300 | 840
7 | COCCN1CCc2ccc(Nc3ncc(Cl)c(N[C@H]4CC[C@@H](NS(C)(=O)=O)CC4)n3)cc2CC1 | 220 | – | –
8 | COCCN1CCc2ccc(Nc3ncc(Cl)c(N[C@H]4CC[C@H](NS(C)(=O)=O)CC4)n3)cc2CC1 | 100 | – | –
9 | COCCN1CCc2ccc(Nc3ncc(Cl)c(N[C@@H]4CCCC[C@H]4NS(C)(=O)=O)n3)cc2CC1 | 9 | 73 | 540
10 | COCCN1CCc2ccc(Nc3ncc(Cl)c(NC4CCCCC4)n3)cc2CC1 | 78 | – | 77
11 | CCS(=O)(=O)N[C@@H]1CCCC[C@H]1Nc1nc(Nc2ccc3c(c2)CCN(CCOC)CC3)ncc1Cl | 50 | – | 930
12 | COCCN1CCc2ccc(Nc3ncc(Cl)c(N[C@@H]4CCCC[C@H]4N)n3)cc2CC1 | 680 | – | –
13 | COc1cc(N2CCOCC2)ccc1Nc1ncc(Cl)c(N[C@@H]2CCCC[C@@H]2NS(C)(=O)=O)n1 (racemic) | 330 | – | 180
14 | CCN1CCc2ccc(Nc3ncc(Cl)c(N[C@@H]4CCCC[C@H]4NC(C)=O)n3)cc2CC1 | 9 | 65 | 150
15 | COCCN1CCc2ccc(Nc3ncc(Cl)c(N[C@@H]4CCCC[C@H]4NS(=O)(=O)C4CC4)n3)cc2CC1 | 110 | – | –
16 | COCCN1CCc2ccc(Nc3ncc(Cl)c(N[C@@H]4CCC[C@@H](NS(C)(=O)=O)C4)n3)cc2CC1 (racemic) | > 3000 | – | –
17 | COc1cc(N2CCOCC2)ccc1Nc1ncc(Cl)c(N[C@@H]2CCCC[C@H]2NS(C)(=O)=O)n1 | 10 | 65 | 1700
18 | CCN1CCc2ccc(Nc3ncc(Cl)c(N[C@@H]4CCCC[C@H]4NS(C)(=O)=O)n3)cc2CC1 | 9 | 60 | 920
19 | COc1cc(N2CCOCC2)ccc1Nc1ncc(Cl)c(N[C@H]2CCCC[C@@H]2NS(C)(=O)=O)n1 | > 10000 | – | 6300
20 | CCN1CCc2ccc(Nc3ncc(Cl)c(N[C@@H]4CCCC[C@H]4NC(=O)C(F)(F)F)n3)cc2CC1 | 26 | 200 | 740
21 | CCN1CCc2ccc(Nc3ncc(Cl)c(N[C@@H]4CCCC[C@H]4NC(=O)N(C)C)n3)cc2CC1 | 370 | – | 150
